According to PMC6381124, “Aplysinopsin-type and Bromotyrosine-derived Alkaloids from the South China Sea Sponge Fascaplysinopsis reticulata” (Scientific Reports, 2019):

Assays:
[1] = system: human cervical cancer (HeLa) cell lines; experiment: Cytotoxicity assay (MTT method) against HeLa cell lines; format: cell-based; conditions: HeLa cells
Protocol: (§1) The cytotoxicity assay of the isolated compounds were evaluated against human lung carcinoma (A549), human cervical cancer (HeLa), human leukemia (K562), and human T-cell leukemia (Jurkat) cell lines using the MTT method with Doxorubicin as the positive control.

[2] = Cytotoxicity assay (MTT method) against Jurkat cell lines; format: cell-based; conditions: human, Jurkat cells (human T-cell leukemia), Doxorubicin as positive control
Protocol: as §1

| Structure (SMILES) | IC50 [1] | IC50 [2] |
| --- | --- | --- |
| CN1C(=O)N(C)C(O)(CC2(O)C(=O)Nc3ccccc32)C1=O (single isomer, unassigned; (+)) [(+)-3, (+)-oxoaplysinopsin C] | 27 µM |  |
| CN1C(=O)N(C)C(O)(CC2(O)C(=O)Nc3ccccc32)C1=O (single isomer, unassigned; (-)) [(−)-3, (−)-oxoaplysinopsin C] | 61.6 µM |  |
| COC(=O)NCCCCCNC(=O)C1=NO[C@]2(C=C(Br)C(OC)=C(Br)[C@@H]2O)C1 [Compound 19, Subereamolline D] |  | 0.88 µM |
